Test results reported in patent publication US20070161807A1, “Method for manufacturing optically pure coumaryl amino acids and the novel coumaryl aminoacids thus obtained” (INSERM (INSTITUT NATIONAL DE LA SANT'E ET DE LA RECHERCHE …, priority 2004, published 2007).

Assay: Physicochemical properties: absorption and fluorescence (Table 1)
Conditions: for Abs. (nm): absorption wavelength; for Abs. (nm) / Em. (nm): determined in 95% ethanol; for Em. (nm): emission wavelength

## N[C@@H](Cc1cc(=O)oc2cc(O)ccc12)C(=O)O.O=C(O)C(F)(F)F [Example 6, (1S)-1-carboxy-2-(7-hydroxy-2-oxo-2H-chromen-4-yl)-ethyl ammonium trifluoroacetate]
  QY quantum yield: 0.49
  ε (cm^−1 M^−1) extinction coefficient: 9000 cm⁻¹ M⁻¹
  Abs. (nm): 329 nm
  Em. (nm): 464 nm

## COc1ccc2c(C[C@H](N)C(=O)O)cc(=O)oc2c1.CS(=O)(=O)O [Example 7, (1S)-1-carboxy-2-(7-methoxy-2-oxo-2H-chromen-4-yl)-ethyl ammonium methanesulfonate]
  QY quantum yield: 0.18
  ε (cm^−1 M^−1) extinction coefficient: 12000 cm⁻¹ M⁻¹
  Abs. (nm): 324 nm
  Em. (nm): 383 nm

## COc1ccc2c(C[C@@H](N)C(=O)O)cc(=O)oc2c1.O=C(O)C(F)(F)F [Example 8, (1R)-1-carboxy-2-(7-methoxy-2-oxo-2H-chromen-4-yl)-ethyl ammonium trifluoroacetate]
  QY quantum yield: 0.15
  ε (cm^−1 M^−1) extinction coefficient: 14000 cm⁻¹ M⁻¹
  Abs. (nm): 323 nm
  Em. (nm): 386 nm

## COc1cc2oc(=O)cc(C[C@H](N)C(=O)O)c2cc1OC.O=C(O)C(F)(F)F [Example 9, (1S)-1-carboxy-2-(6,7-dimethoxy-2-oxo-2H-chromen-4-yl)-ethyl ammonium trifluoroacetate]
  QY quantum yield: 0.60
  ε (cm^−1 M^−1) extinction coefficient: 12000 cm⁻¹ M⁻¹
  Abs. (nm): 345 nm
  Em. (nm): 445 nm

## N[C@@H](Cc1cc(=O)oc2cc(O)c(Cl)cc12)C(=O)O.O=C(O)C(F)(F)F [Example 10, (1S)-1-carboxy-2-(6-chloro, 7-hydroxy-2-oxo-2H-chromen-4-yl)-ethyl ammonium trifluoroacetate]
  QY quantum yield: 0.54
  ε (cm^−1 M^−1) extinction coefficient: 10300 cm⁻¹ M⁻¹
  Abs. (nm): 331 nm
  Em. (nm): 465 nm

## CCOc1ccc2c(C[C@H](N)C(=O)O)cc(=O)oc2c1.O=C(O)C(F)(F)F [Example 11, (1S)-1-carboxy-2-(7-ethoxy-2-oxo-2H-chromen-4-yl)-ethyl ammonium trifluoroacetate]
  QY quantum yield: 0.17
  ε (cm^−1 M^−1) extinction coefficient: 13300 cm⁻¹ M⁻¹
  Abs. (nm): 325 nm
  Em. (nm): 387 nm

## COc1cc(O)c2c(C[C@H](N)C(=O)O)cc(=O)oc2c1.O=C(O)C(F)(F)F [Example 12, (1S)-1-carboxy-2-(5-hydroxy, 7-methoxy-2-oxo-2H-chromen-4-yl)-ethyl ammonium trifluoroacetate]
  QY quantum yield: 0.50
  ε (cm^−1 M^−1) extinction coefficient: 6800 cm⁻¹ M⁻¹
  Abs. (nm): 329 nm
  Em. (nm): 421 nm

## COc1cc(O)cc2oc(=O)cc(C[C@H](N)C(=O)O)c12.O=C(O)C(F)(F)F [Example 13, (1S)-1-carboxy-2-(7-hydroxy, 5-methoxy-2-oxo-2H-chromen-4-yl)-ethyl ammonium trifluoroacetate]
  QY quantum yield: 0.18
  ε (cm^−1 M^−1) extinction coefficient: 12700 cm⁻¹ M⁻¹
  Abs. (nm): 323 nm
  Em. (nm): 421 nm

## COc1cc(OC)c2c(C[C@H](N)C(=O)O)cc(=O)oc2c1.O=C(O)C(F)(F)F [Example 14, (1S)-1-carboxy-2-(5,7-dimethoxy-2-oxo-2H-chromen-4-yl)-ethyl ammonium trifluoroacetate]
  QY quantum yield: 0.39
  ε (cm^−1 M^−1) extinction coefficient: 11500 cm⁻¹ M⁻¹
  Abs. (nm): 324 nm
  Em. (nm): 419 nm

## N[C@@H](Cc1cc(=O)oc2cc(O)cc(O)c12)C(=O)O.O=C(O)C(F)(F)F [Example 15, (1S)-1-carboxy-2-(5,7-dihydroxy-2-oxo-2H-chromen-4-yl)-ethyl ammonium trifluoroacetate]
  ε (cm^−1 M^−1) extinction coefficient: 11800 cm⁻¹ M⁻¹
  Abs. (nm): 327 nm
  Em. (nm): 463 nm

## COc1ccc2c(CC[C@H](N)C(=O)O)cc(=O)oc2c1.O=C(O)C(F)(F)F [Example 16, (1S)-1-carboxy-3-(7-methoxy-2-oxo-2H-chromen-4-yl)-propyl ammonium trifluoroacetate]
  QY quantum yield: 0.21
  ε (cm^−1 M^−1) extinction coefficient: 12500 cm⁻¹ M⁻¹
  Abs. (nm): 321 nm
  Em. (nm): 380 nm

## COc1ccc2c(CC[C@H](N)C(=O)OCc3ccccc3)cc(=O)oc2c1.O=C(O)C(F)(F)F [Example 17, (1S)-1-benzyloxycarbonyl-3-(7-methoxy-2-oxo-2H-chromen-4-yl)-propyl ammonium trifluoroacetate]
  QY quantum yield: 0.17
  ε (cm^−1 M^−1) extinction coefficient: 14600 cm⁻¹ M⁻¹
  Abs. (nm): 322 nm
  Em. (nm): 381 nm

## N[C@@H](Cc1c[nH]c2ccccc12)C(=O)O [W, tryptophan, reference compound]
  QY quantum yield: 0.12
  ε (cm^−1 M^−1) extinction coefficient: 5300 cm⁻¹ M⁻¹
  Abs. (nm): 278 nm
  Em. (nm): 352 nm

## N[C@@H](Cc1ccc(O)cc1)C(=O)O [Y, tyrosine, reference compound]
  QY quantum yield: 0.13
  ε (cm^−1 M^−1) extinction coefficient: 1400 cm⁻¹ M⁻¹
  Abs. (nm): 274 nm
  Em. (nm): 303 nm
